Among the data in US20240409556A1, “BENZOPIPERAZINE AND RELATED ANALOGS FOR INHIBITING YAP/TAZ-TEAD” (Springworks Therapeutics, Inc., priority 2023, published 2024) are EC50 and IC50 values, retold here.

What all share (assay type): cell-based
In assay [1] the test system is NCI-H2052 mesothelioma cell line. The experiment in a line: Mesothelioma cell line proliferation assay, NCI-H2052 (ATPlite). The settings on record: NCI-H2052 cells, 6 days with compound, cell viability by ATPlite. The method, then: (§1) Example 57: Activity of Compounds of the Disclosure in Mesothelioma Cell Line Proliferation Assays
(§2) Mesothelioma cell lines, NCI-H226 and NCI-H2052 (both sourced from the ATCC cell culture collection) were plated in 96-well plates (Corning® 96 Well White Polystyrene Microplate clear flat bottom, white polystyrene (TC-Treated)), at 1500 cells/well in full medium (RPMI 1640 ATCC modification with L-glutamine, HEPES, Phenol Red, Sodium Pyruvate, High glucose, Low sodium bicarbonate and 10% fetal bovine serum). Cells were incubated overnight at 37° C. in an incubator with 5% CO2. Then compounds, dissolved in DMSO, were added in dose-response. Cells were incubated with compound dilutions for another 6 days at 37° C. in an incubator with 5% CO2. Cell viability was quantitated using the ATPlite kit (Perkin-Elmer) and the luminescence was read-out using an Envision instrument (Perkin-Elmer). The amount of relative light units produced using the ATPlite kit was used to calculate percent of inhibition.
(§3) The activities of some example compounds are depicted in Table 4. The activity ranges A, B and C refer to EC50 values in the mesothelioma cell line proliferation assay as described as follows: “A”: EC50<1 μM; “B”: 1 μM≤EC50≤10 μM and “C”: EC50>10 μM; NT: not tested.

In assay [2] the test system is NCI-H226 mesothelioma cell line. Put plainly: Mesothelioma cell line proliferation assay, NCI-H226 (ATPlite). The settings on record: NCI-H226 cells, 6 days with compound, cell viability by ATPlite. How it is done: as §1, §2, §3
The test system of assay [3] is YAP/TAZ-TEAD transcription. The experiment in a line: Reporter gene assay for measuring the inhibition of YAP/TAZ-TEAD transcription (TEAD-responsive element luciferase reporter in Hek293T cells). The settings on record: 24 hours incubation. In outline: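 HEK293T cells transiently transfected with a TEAD-responsive luciferase reporter were exposed to compounds for 24 h at 37° C/5% CO2, then luminescence was read. Percent inhibition normalised to vehicle (0%) and positive-control inhibitor (100%); IC50 derived.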

As to `C=CC(=O)N1CCN2c3ccccc3N(c3ccc(C(F)(F)F)cc3)CC2C1` (single isomer, unassigned) [14-En1, (R)- or (S)-1-(6-(4-(trifluoromethyl)phenyl)-1,2,4,4a,5,6-hexahydro-3H-pyrazino[1,2-a]quinoxalin-3-yl)prop-2-en-1-one], the EC50 in assay [1] (Homo sapiens, 144 h) is < 1 µM; in assay [2] (Homo sapiens, 144 h), < 1 µM. For the same compound, the IC50 in assay [3] was < 1 µM.

Consider `C=CC(=O)N1CCN2c3ccccc3N(c3ccc(C(F)(F)F)cc3)CC2C1` (single isomer, unassigned) [14-En2, (R)- or (S)-1-(6-(4-(trifluoromethyl)phenyl)-1,2,4,4a,5,6-hexahydro-3H-pyrazino[1,2-a]quinoxalin-3-yl)prop-2-en-1-one], for which the EC50 in assay [1] and in assay [2] was < 1 µM throughout. Further, in assay [3], the IC50 was < 1 µM.

For `CC(=O)N1CCN2c3ccccc3N(c3ccc(C(F)(F)F)cc3)CC2C1` (single isomer, unassigned) [15-En2, (R)- or (S)-1-(6-(4-(trifluoromethyl)phenyl)-1,2,4,4a,5,6-hexahydro-3H-pyrazino[1,2-a]quinoxalin-3-yl)ethan-1-one], the EC50 in assay [1] and in assay [2] was < 1 µM in each case. For the same compound, the IC50 in assay [3] is < 1 µM.

Consider `C=CC(=O)NCC1CN(c2ccc(C(F)(F)F)cc2)c2cccnc2N1C` (single isomer, unassigned) [27-En1], for which the EC50 in assay [1] (Homo sapiens, 144 h) is < 1 µM; in assay [2] (Homo sapiens, 144 h), < 1 µM. Further, in assay [3] (Homo sapiens, HEK-293T, 24 h), the IC50 was < 1 µM.

As to `C=CC(=O)NCC1CN(c2ccc(C(F)(F)F)cc2)c2cccnc2N1C` (single isomer, unassigned) [27-En2], the EC50 in assay [1] and in assay [2] was < 1 µM in each case. The IC50 in assay [3] was < 1 µM.

Consider `CC(=O)N1CCN2c3ncccc3N(c3ccc(C(F)(F)F)cc3)CC2C1` (single isomer, unassigned) [29-En1, (R)- or (S)-1-(5-(4-(trifluoromethyl)phenyl)-5,6,6a,7,9,10-hexahydro-8H-pyrazino[1,2-a]pyrido[3,2-e]pyrazin-8-yl)ethan-1-one], for which the EC50 in assay [1] (Homo sapiens, 144 h) is < 1 µM; in assay [2] (Homo sapiens, 144 h) it was < 1 µM. Further, in assay [3] (Homo sapiens, HEK-293T, 24 h), the IC50 was < 1 µM.

For the compound `CNS(=O)(=O)N1CCN2c3ccccc3N(c3ccc(C(F)(F)F)cc3)CC2C1` (single isomer, unassigned) [32-En2, (R)- or (S)-N-methyl-6-(4-(trifluoromethyl)phenyl)-1,2,4,4a,5,6-hexahydro-3H-pyrazino[1,2-a]quinoxaline-3-sulfonamide], the 50% effective concentration (EC50) in assay [2] was < 1 µM. For the same compound, the IC50 in assay [3] was < 1 µM.

On to `CC(=O)NCC1CN(c2ccc(C(F)(F)F)cc2)c2ccccc2N1` (single isomer, unassigned) [34-En2, (R)- or (S)-N-((4-(4-(trifluoromethyl)phenyl)-1,2,3,4-tetrahydroquinoxalin-2-yl)methyl)acetamide], for which the EC50 in assay [2] was < 1 µM. Further, the IC50 in assay [3] (Homo sapiens, HEK-293T, 24 h) was < 1 µM.

On to `CC(=O)NCC1CN(c2ccc(C(F)(F)F)cc2)c2ccccc2O1` (single isomer, unassigned) [36-En1, (R)- or (S)-N-((4-(4-(trifluoromethyl)phenyl)-3,4-dihydro-2H-benzo[b][1,4]oxazin-2-yl)methyl)acetamide], for which, in assay [2], the EC50 is < 1 µM. For the same compound, the IC50 in assay [3] was < 1 µM.

As for `CC(=O)N1CCN2c3nccnc3N(c3ccc(C(F)(F)F)cc3)CC2C1` (single isomer, unassigned) [40-En1, (R)- or (S)-1-(5-(4-(trifluoromethyl)phenyl)-5,6,6a,7,9,10-hexahydro-8H-dipyrazino[1,2-a:2′,3′-e]pyrazin-8-yl)ethan-1-one], the EC50 in assay [1] (Homo sapiens, 144 h) is < 1 µM; in assay [2] (Homo sapiens, 144 h), < 1 µM. Also, in assay [3], the IC50 was < 1 µM.

For `CNS(=O)(=O)N1CCN2c3ncccc3N(c3ccc(C(F)(F)F)cc3)CC2C1` (single isomer, unassigned) [45-En2, (R)- or (S)-N-methyl-5-(4-(trifluoromethyl)phenyl)-5,6,6a,7,9,10-hexahydro-8H-pyrazino[1,2-a]pyrido[3,2-e]pyrazine-8-sulfonamide], the EC50 in assay [1] (Homo sapiens, 144 h) was < 1 µM; in assay [2] (Homo sapiens, 144 h), < 1 µM. For the same compound, the IC50 in assay [3] is < 1 µM.

Take `CC(C)C(=O)N1CCN2c3ncccc3N(c3ccc(C(F)(F)F)cc3)CC2C1` (single isomer, unassigned) [47-En1, (R)- or (S)-2-methyl-1-(5-(4-(trifluoromethyl)phenyl)-5,6,6a,7,9,10-hexahydro-8H-pyrazino[1,2-a]pyrido[3,2-e]pyrazin-8-yl)propan-1-one]: the EC50 is < 1 µM in assay [1] (Homo sapiens, 144 h) and < 1 µM in assay [2] (Homo sapiens, 144 h). Also, the IC50 in assay [3] was < 1 µM.

Take `CC(=O)NCC1CN(c2ccc(C(F)(F)F)cc2)c2cccnc2O1` (single isomer, unassigned) [49-En1, (R)- or (S)-N-((1-(4-(trifluoromethyl)phenyl)-2,3-dihydro-1H-pyrido[2,3-b][1,4]oxazin-3-yl)methyl)acetamide]: the EC50 in assay [1] (Homo sapiens, 144 h) was < 1 µM; in assay [2] (Homo sapiens, 144 h) it was < 1 µM. The IC50 in assay [3] is < 1 µM.

Consider `CNC(=O)N1CCN2c3ncccc3N(c3ccc(C(F)(F)F)cc3)CC2C1` (single isomer, unassigned) [52-En2, (R)- or (S)-N-methyl-5-(4-(trifluoromethyl)phenyl)-5,6,6a,7,9,10-hexahydro-8H-pyrazino[1,2-a]pyrido[3,2-e]pyrazine-8-carboxamide], for which the EC50 was < 1 µM in assay [1] (Homo sapiens, 144 h) and < 1 µM in assay [2] (Homo sapiens, 144 h). The half-inhibitory concentration (IC50) in assay [3] is < 1 µM.

As to `CC(=O)NCC1CN(c2ccc(C(F)(F)F)cc2)c2cc(Cl)cnc2O1` (single isomer, unassigned) [75-En2, (R)- or (S)-N-((7-chloro-1-(4-(trifluoromethyl)phenyl)-2,3-dihydro-1H-pyrido[2,3-b][1,4]oxazin-3-yl)methyl)acetamide], the EC50 in assay [1] (Homo sapiens, 144 h) is < 1 µM; in assay [2] (Homo sapiens, 144 h), < 1 µM. For the same compound, the IC50 in assay [3] was < 1 µM.

For `CC(=O)NCC1CN(c2ccc(C(F)(F)F)cc2)c2ccc(C)nc2O1` (single isomer, unassigned) [77-En1, (R)- or (S)-N-((6-methyl-1-(4-(trifluoromethyl)phenyl)-2,3-dihydro-1H-pyrido[2,3-b][1,4]oxazin-3-yl)methyl)acetamide], the EC50 was < 1 µM in assay [1] (Homo sapiens, 144 h) and < 1 µM in assay [2] (Homo sapiens, 144 h). In assay [3], the IC50 was < 1 µM.

With `C=CC(=O)N1CCN2c3nccnc3N(c3ccc(C(F)(F)F)cc3)CC2C1` (centres unmarked) [41-En1, 1-(5-(4-(trifluoromethyl)phenyl)-5,6,6a,7,9,10-hexahydro-8H-dipyrazino[1,2-a:2′,3′-e]pyrazin-8-yl)prop-2-en-1-one], the EC50 in assay [1] (Homo sapiens, 144 h) was < 1 µM; in assay [2] (Homo sapiens, 144 h) it was < 1 µM.

Turning to `C=CC(=O)N1CCN2c3nccnc3N(c3ccc(C(F)(F)F)cc3)CC2C1` (centres unmarked) [41-En2, 1-(5-(4-(trifluoromethyl)phenyl)-5,6,6a,7,9,10-hexahydro-8H-dipyrazino[1,2-a:2′,3′-e]pyrazin-8-yl)prop-2-en-1-one], the EC50 in assay [1] and in assay [2] was < 1 µM each time.

For `C=CC(=O)NCC1CN(c2ccc(C(F)(F)F)cc2)c2cccnc2O1` (centres unmarked) [48-En1, N-((1-(4-(trifluoromethyl)phenyl)-2,3-dihydro-1H-pyrido[2,3-b][1,4]oxazin-3-yl)methyl)acrylamide], the EC50 in assay [1] (Homo sapiens, 144 h) is < 1 µM; in assay [2] (Homo sapiens, 144 h), < 1 µM.

As for `C=CC(=O)NCC1CN(c2ccc(C(F)(F)F)cc2)c2cccnc2O1` (centres unmarked) [48-En2, N-((1-(4-(trifluoromethyl)phenyl)-2,3-dihydro-1H-pyrido[2,3-b][1,4]oxazin-3-yl)methyl)acrylamide], the EC50 in assay [1] and in assay [2] was < 1 µM in each case.

As for `O=C(O)C1CCN2c3ccccc3N(c3ccc(C(F)(F)F)cc3)CC2C1` (stereo not drawn) [65B, (cis)- or (trans)-5-(4-(trifluoromethyl)phenyl)-6,6a,7,8,9,10-hexahydro-5H-pyrido[1,2-a]quinoxaline-8-carboxylic acid], the EC50 in assay [1] (Homo sapiens, 144 h) is < 1 µM; in assay [2] (Homo sapiens, 144 h), < 1 µM.

`O=C(O)C1CCN2c3ncccc3N(c3ccc(C(F)(F)F)cc3)CC2C1` [96B-En1, (6aS,8S)- or (6aR,8S)- or (6aR,8R)- or (6aS,8R)-5-(4-(trifluoromethyl)phenyl)-6,6a,7,8,9,10-hexahydro-5H-dipyrido[1,2-a:3′,2′-e]pyrazine-8-carboxylic acid]: the EC50 is < 1 µM in assay [1] (Homo sapiens, 144 h) and < 1 µM in assay [2] (Homo sapiens, 144 h).

Turning to `C=CC(=O)N1CCN2c3ccccc3N(c3ccc(C(F)(F)F)cc3)CC2C1` (centres unmarked) [compound 14, 1-(6-(4-(trifluoromethyl)phenyl)-1,2,4,4a,5,6-hexahydro-3H-pyrazino[1,2-a]quinoxalin-3-yl)prop-2-en-1-one], in assay [2], the EC50 is < 1 µM. The 50% inhibitory concentration (IC50) in assay [3] (Homo sapiens, HEK-293T, 24 h) is < 1 µM.
